According to patent US20050209339A1, “Methods for the treatment of sinusitis” (priority 2002, published 2005):

Experiments:
[1] = system: molds and dimorphic fungi, pathogenic yeasts of the genera Pityrosporum, Candida and Rhodotorula; conditions: many pathogenic yeasts (Pityrosporum, Candida, Rhodotorula); cited from earlier work
[2] = system: ergosterol biosynthesis (squalene epoxidase); conditions: blocks squalene epoxidase; cited from earlier work
[3] = system: chronic rhinosinusitis; assay: double-blind placebo-controlled clinical trial in chronic rhinosinusitis; type: in vivo, human; conditions: 625 mg terbinafine base equivalent as hydrochloride orally once daily for 6 weeks, versus placebo, patients
Protocol: A prospective, double-blind, parallel-group, multi-center, placebo-controlled study comparing the safety and efficacy of 625 mg of terbinafine base equivalent as hydrochloride daily, or a molar equivalent in other acid addition salt or free base form, for 6 weeks, versus placebo in the treatment of chronic rhinosinusitis is performed. The study duration is a total of 18 weeks and consists of three periods: a) screening (3 weeks, from week −3 to −1); b) treatment (6 weeks, from baseline of treatment week to week +6); and c) follow-up assessment (9 weeks, from week +7 to +15).
Sixty patients, male and female, between the age of 18 and 65 years, are randomized to receive six weeks of terbinafine therapy or placebo.
Additional inclusion criteria for admission to the study is as follows: • Patients with signs and symptoms of chronic non-invasive rhinosinusitis (CRS) for at least 3 months prior to screening. […]

CN(C/C=C/C#CC(C)(C)C)Cc1cccc2ccccc12 [Terbinafine]
activity in vitro [1]: active in vitro
inhibition of ergosterol biosynthesis [2]: potent inhibitor
efficacy relative to primary (CT total opacification score) and secondary variables [3]: therapeutically effective regimen
